Data published in ChEMBL document CHEMBL5104170, “Discovery of vimseltinib (DCC-3014), a highly selective CSF1R switch-control kinase inhibitor, in clinical development for the treatment of Tenosynovial Giant Cell Tumor (TGCT)” (Bioorg Med Chem Lett, 2022).
Values after ≈ are worked out from the molar mass of the structure shown.

What was measured:
cells [1] = settings: Homo sapiens, Osteoclast
Description: Inhibition of RANKL-induced human osteoclast precursor cells differentiation in presence of human CSF1 and measured by tartrate-resistant acid phosphatase activity assay

NFS-60 = assay: cells; settings: Mus musculus, NFS-60, 72 h
Description: Antiproliferative activity against CSF1-treated mouse NFS-60 cells measured after 72 hrs by resazurin method

[2] = Inhibition of His-Glu tagged recombinant human KIT Q694-T753 deletion mutant (565 to 935 residues) measured by spectrophotometric analysis
[3] = Plasma concentration in DBA/1 mouse at 7.5 mg/kg, po administered once daily for 6 days and measured at 24 hrs; type: ADME, organism-based; settings: time 6 day
[4] = In vivo inhibition of CSF1R in CSF1-stimulated DBA/1 mouse assessed as modulation of cFOS mRNA at 7.5 mg/kg, po administered once daily for 6 days followed by CSF1 administration through intravenously and measured at 6 hrs by RT-PCR method; type: functional; settings: DBA/1, 144 h, time 6 day
[5] = Plasma concentration in DBA/1 mouse at 7.5 mg/kg, po administered once daily for 6 days and measured at 4 hrs; type: ADME, organism-based; settings: time 6 day
[6] = In vivo inhibition of CSF1R in CSF1-stimulated DBA/1 mouse assessed as modulation of cFOS mRNA at 7.5 mg/kg, po administered once daily for 6 days followed by CSF1 administration through intravenously and measured at 8 hrs by RT-PCR method; type: functional; settings: DBA/1, 144 h, time 6 day
[7] = Plasma concentration in DBA/1 mouse at 7.5 mg/kg, po administered once daily for 6 days and measured at 12 hrs; type: ADME, organism-based; settings: time 6 day
[8] = In vivo inhibition of CSF1R in CSF1-stimulated DBA/1 mouse assessed as modulation of cFOS mRNA at 7.5 mg/kg, po administered once daily for 6 days followed by CSF1 administration through intravenously and measured at 12 hrs by RT-PCR method; type: functional; settings: DBA/1, 144 h, time 6 day
[9] = In vivo inhibition of CSF1R in CSF1-stimulated DBA/1 mouse assessed as modulation of cFOS mRNA at 7.5 mg/kg, po administered once daily for 6 days followed by CSF1 administration through intravenously and measured at 4 hrs by RT-PCR method; type: functional; settings: DBA/1, 144 h, time 6 day
[10] = Plasma concentration in DBA/1 mouse at 7.5 mg/kg, po administered once daily for 6 days and measured at 2 hrs; type: ADME, organism-based; settings: time 6 day
[11] = In vivo inhibition of CSF1R in CSF1-stimulated DBA/1 mouse assessed as modulation of cFOS mRNA at 7.5 mg/kg, po administered once daily for 6 days followed by CSF1 administration through intravenously and measured at 24 hrs by RT-PCR method; type: functional; settings: DBA/1, 144 h, time 6 day
[12] = In vivo inhibition of CSF1R in CSF1-stimulated DBA/1 mouse assessed as modulation of cFOS mRNA at 7.5 mg/kg, po administered once daily for 6 days followed by CSF1 administration through intravenously and measured at 2 hrs by RT-PCR method; type: functional; settings: DBA/1, 144 h, time 6 day
[13] = Plasma concentration in DBA/1 mouse at 7.5 mg/kg, po administered once daily for 6 days and measured at 6 hrs; type: ADME, organism-based; settings: time 6 day
[14] = Plasma concentration in DBA/1 mouse at 7.5 mg/kg, po administered once daily for 6 days and measured at 18 hrs; type: ADME, organism-based; settings: time 6 day
[15] = In vivo inhibition of CSF1R in CSF1-stimulated DBA/1 mouse assessed as modulation of cFOS mRNA at 7.5 mg/kg, po administered once daily for 6 days followed by CSF1 administration through intravenously and measured at 18 hrs by RT-PCR method; type: functional; settings: DBA/1, 144 h, time 6 day
[16] = Plasma concentration in DBA/1 mouse at 7.5 mg/kg, po administered once daily for 6 days and measured at 8 hrs; type: ADME, organism-based; settings: time 6 day
[17] = AUC (0 to 24 hrs) in rat at 10 mg/kg, po; type: ADME, organism-based; parameters: time < 24 hr, dose 10 mg/kg, route po; settings: in vivo
[18] = Permeability across apical to basolateral side in human Caco-2 cells; type: ADME, cell-based; settings: read-out: permeability
hERG (KCNH2) = hERG (KCNH2) (Homo sapiens, UniProt Q12809); assay: Inhibition of hERG measured by fluorescence polarization assay; type: toxicity
hERG (KCNH2), sequence (Q12809 whole entry): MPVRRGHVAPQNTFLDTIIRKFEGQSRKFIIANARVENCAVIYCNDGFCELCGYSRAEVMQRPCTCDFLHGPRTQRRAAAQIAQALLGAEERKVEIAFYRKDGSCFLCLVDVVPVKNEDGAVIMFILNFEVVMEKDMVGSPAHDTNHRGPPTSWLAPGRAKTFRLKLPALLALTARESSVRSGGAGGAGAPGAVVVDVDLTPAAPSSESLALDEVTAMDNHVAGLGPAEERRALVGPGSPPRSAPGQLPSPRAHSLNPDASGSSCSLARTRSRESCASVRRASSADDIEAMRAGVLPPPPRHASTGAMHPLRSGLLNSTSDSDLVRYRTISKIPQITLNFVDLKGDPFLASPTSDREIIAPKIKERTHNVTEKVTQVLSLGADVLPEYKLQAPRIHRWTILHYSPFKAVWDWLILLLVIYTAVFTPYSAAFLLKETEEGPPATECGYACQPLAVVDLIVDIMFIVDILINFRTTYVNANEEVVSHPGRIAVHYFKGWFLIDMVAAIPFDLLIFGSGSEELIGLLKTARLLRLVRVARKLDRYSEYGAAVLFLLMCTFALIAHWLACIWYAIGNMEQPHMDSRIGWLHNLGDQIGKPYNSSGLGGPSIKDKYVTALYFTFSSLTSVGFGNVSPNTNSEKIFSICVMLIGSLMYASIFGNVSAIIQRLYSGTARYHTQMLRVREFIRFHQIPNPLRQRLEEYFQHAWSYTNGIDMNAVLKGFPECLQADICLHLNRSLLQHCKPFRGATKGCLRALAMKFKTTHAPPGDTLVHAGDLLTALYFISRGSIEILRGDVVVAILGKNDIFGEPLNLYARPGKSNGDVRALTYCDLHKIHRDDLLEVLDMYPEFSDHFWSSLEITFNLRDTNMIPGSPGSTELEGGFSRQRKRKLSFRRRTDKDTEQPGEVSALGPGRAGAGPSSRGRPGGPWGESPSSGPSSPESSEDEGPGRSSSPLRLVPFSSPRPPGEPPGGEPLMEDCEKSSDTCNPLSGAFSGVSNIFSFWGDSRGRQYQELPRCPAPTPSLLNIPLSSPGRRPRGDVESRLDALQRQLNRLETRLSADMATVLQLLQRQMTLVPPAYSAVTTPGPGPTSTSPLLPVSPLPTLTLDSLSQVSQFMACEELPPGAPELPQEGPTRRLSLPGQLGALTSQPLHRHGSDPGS

[19] = Plasma protein binding in mouse; type: ADME, cell-free; settings: read-out: PPB (converted)
[20] = Tmax in dog at 10 mg/kg, po; type: ADME, organism-based, Canis lupus familiaris; settings: in vivo
[21] = Plasma protein binding in rat; type: ADME, cell-free; settings: read-out: PPB (converted)
[22] = Plasma protein binding in human; type: ADME, cell-free; settings: read-out: PPB (converted)
[23] = Oral bioavailability in rat at 10 mg/kg; type: ADME, organism-based; settings: in vivo
[24] = Volume of distribution in dog at 10 mg/kg, po; type: ADME, organism-based, Canis lupus familiaris; settings: in vivo
[25] = target: Mast/stem cell growth factor receptor Kit (Homo sapiens, UniProt P10721); assay: Inhibition of KIT (unknown origin) in presence of 4 mM ATP measured by cell-based spectrophotometric assay
Mast/stem cell growth factor receptor Kit, sequence (P10721 whole entry): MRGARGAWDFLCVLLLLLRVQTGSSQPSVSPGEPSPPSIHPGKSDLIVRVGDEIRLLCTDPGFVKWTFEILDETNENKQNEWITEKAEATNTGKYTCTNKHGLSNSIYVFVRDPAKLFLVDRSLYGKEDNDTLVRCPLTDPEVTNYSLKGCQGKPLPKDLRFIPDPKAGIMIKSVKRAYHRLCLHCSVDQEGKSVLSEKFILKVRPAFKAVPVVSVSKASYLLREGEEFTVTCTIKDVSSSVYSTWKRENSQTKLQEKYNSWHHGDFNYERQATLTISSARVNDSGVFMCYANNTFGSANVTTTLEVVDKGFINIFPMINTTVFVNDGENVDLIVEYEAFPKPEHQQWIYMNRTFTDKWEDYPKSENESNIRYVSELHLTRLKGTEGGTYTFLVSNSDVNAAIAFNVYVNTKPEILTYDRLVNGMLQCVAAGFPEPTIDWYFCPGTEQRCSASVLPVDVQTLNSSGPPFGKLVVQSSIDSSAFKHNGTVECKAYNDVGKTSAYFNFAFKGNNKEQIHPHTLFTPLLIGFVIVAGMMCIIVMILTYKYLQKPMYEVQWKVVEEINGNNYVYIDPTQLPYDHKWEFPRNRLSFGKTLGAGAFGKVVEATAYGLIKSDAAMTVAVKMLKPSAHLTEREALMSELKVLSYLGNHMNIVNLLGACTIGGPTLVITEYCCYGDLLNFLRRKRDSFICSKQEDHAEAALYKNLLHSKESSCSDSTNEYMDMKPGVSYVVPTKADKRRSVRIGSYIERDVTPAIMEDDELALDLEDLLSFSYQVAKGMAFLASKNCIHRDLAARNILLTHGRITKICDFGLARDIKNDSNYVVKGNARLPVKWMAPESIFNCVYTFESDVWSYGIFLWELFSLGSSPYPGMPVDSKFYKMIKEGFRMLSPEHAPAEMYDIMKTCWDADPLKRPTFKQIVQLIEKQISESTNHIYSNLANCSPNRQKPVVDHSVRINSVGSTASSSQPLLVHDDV

[26] = Aqueous solubility of compound at pH 7.4; type: physicochemical
[27] = Metabolic stability in mouse liver microsomes assessed as compound remaining at 60 mins; type: ADME, Microsome; settings: read-out: Stability
[28] = Plasma protein binding in dog; type: ADME, cell-free, Canis lupus familiaris; settings: read-out: PPB (converted)
[29] = Tmax in rat at 10 mg/kg, po; type: ADME, organism-based; settings: in vivo
[30] = Metabolic stability in rat liver microsomes assessed as compound remaining at 60 mins; type: ADME, Microsome; settings: read-out: Stability
[31] = Metabolic stability in dog liver microsomes assessed as compound remaining at 60 mins; type: ADME, Canis lupus familiaris, Microsome; settings: read-out: Stability
[32] = Cmax in rat at 10 mg/kg, po; type: ADME, organism-based; parameters: dose 10 mg/kg, route po; settings: in vivo
[33] = Half-life in dog at 10 mg/kg, po; type: ADME, organism-based, Canis lupus familiaris; settings: in vivo
[34] = Cmax in dog at 10 mg/kg, po; type: ADME, organism-based, Canis lupus familiaris; parameters: dose 10 mg/kg, route po; settings: in vivo
[35] = Volume of distribution in rat at 10 mg/kg, po; type: ADME, organism-based; settings: in vivo
[36] = AUC (0 to 24 hrs) in dog at 10 mg/kg, po; type: ADME, organism-based, Canis lupus familiaris; parameters: time < 24 hr, dose 10 mg/kg, route po; settings: in vivo
[37] = Clearance in rat at 10 mg/kg, po; type: ADME, organism-based; settings: in vivo
cells [38] = settings: Homo sapiens
Description: Inhibition of ABL (unknown origin) in presence of 4 mM ATP measured by cell-based spectrophotometric assay

[39] = Metabolic stability in human liver microsomes assessed as compound remaining at 60 mins; type: ADME, Microsome; settings: read-out: Stability
[40] = Clearance in dog at 10 mg/kg, po; type: ADME, organism-based, Canis lupus familiaris; settings: in vivo
[41] = Oral bioavailability in dog at 10 mg/kg; type: ADME, organism-based, Canis lupus familiaris; settings: in vivo
[42] = Half-life in rat at 10 mg/kg, po; type: ADME, organism-based; settings: in vivo

CN(C)CC(=O)N1CCC(c2ccc(NC(=O)c3nc(C#N)c[nH]3)c(C3=CCCCC3)c2)CC1
IC50 (cells [1]): 0.0017 µM

Cc1nc(-c2cnc(N3CCCC3)[nH]c2=O)ccc1Oc1ccnc(-c2cnn(C)c2)c1
IC50 (NFS-60): 0.056 µM | IC50 [2]: > 3.3 µM

Cc1nc(-c2cnc(N3CCOCC3)[nH]c2=O)ccc1Oc1ccnc(-c2cnn(C)c2)c1
IC50 (NFS-60): 0.494 µM | IC50 [2]: > 3.3 µM

Cc1nc(-c2cnc(N(C)C)[nH]c2=O)ccc1Oc1ccnc(-c2cnn(C)c2)c1
IC50 (NFS-60): 0.716 µM | IC50 (cells [1]): 0.017 µM | IC50 [2]: > 3.3 µM

CCNc1ncc(-c2ccc(Oc3ccnc(-c4ccc(C)nc4)c3)c(C)n2)c(=O)[nH]1
IC50 (NFS-60): 1.2 µM | IC50 [2]: 1.5 µM

Cc1cc(-c2cnc(N3CCCC3)[nH]c2=O)ncc1Oc1ccnc(-c2cnn(C)c2)c1
IC50 (NFS-60): 0.016 µM | IC50 [2]: 0.473 µM

CNc1ncc(-c2ccc(Oc3ccnc(-c4cnn(C)c4)c3)c(C)n2)c(=O)[nH]1
IC50 (NFS-60): 1.3 µM | IC50 [2]: 0.257 µM

Cc1nc(-c2cnc(NC3CC3)n(C)c2=O)ccc1Oc1ccnc(-c2cnn(C)c2)c1
IC50 (NFS-60): 0.018 µM | IC50 (cells [1]): 0.0074 µM | IC50 [2]: 1.7 µM

CCNc1ncc(-c2ccc(Oc3ccnc(-n4cnc(C)c4)c3)c(C)n2)c(=O)[nH]1
IC50 (NFS-60): 2.8 µM | IC50 [2]: 1.3 µM

CCn1cc(-c2cc(Oc3ccc(-c4cnc(NC(C)C)[nH]c4=O)nc3C)ccn2)cn1
IC50 (NFS-60): 0.013 µM | IC50 [2]: 2 µM

Cc1nc(-c2cnc(N3CCCCC3)[nH]c2=O)ccc1Oc1ccnc(-c2cnn(C)c2)c1
IC50 (NFS-60): 0.03 µM | IC50 [2]: > 3.3 µM

Cc1nc(-c2cnc(NC3CCOCC3)[nH]c2=O)ccc1Oc1ccnc(-c2cnn(C)c2)c1
IC50 (NFS-60): 0.413 µM | IC50 [2]: 3.2 µM

Cc1nc(-c2cnc(NC3CCCC3)[nH]c2=O)ccc1Oc1ccnc(-c2cnn(C)c2)c1
IC50 (NFS-60): 0.0026 µM | IC50 [2]: 0.99 µM

Cc1nc(-c2cnc(NC(C)C)[nH]c2=O)ccc1Oc1ccnc(-c2cnn(C)c2)c1
concentration at 144 h [3]: 17 ng/mL | IC50 (NFS-60): 0.0031 µM | inhibition in vivo at 7.5 mg/kg [4]: 22% | concentration at 144 h [5]: 563 ng/mL | inhibition in vivo at 7.5 mg/kg [6]: 47% | concentration at 144 h [7]: 20 ng/mL | IC50 (cells [1]): 0.013 µM | inhibition in vivo at 7.5 mg/kg [8]: 14% | inhibition in vivo at 7.5 mg/kg [9]: 55% | concentration at 144 h [10]: 696 ng/mL | inhibition in vivo at 7.5 mg/kg [11]: 16% | inhibition in vivo at 7.5 mg/kg [12]: 36% | concentration at 144 h [13]: 451 ng/mL | concentration at 144 h [14]: 21 ng/mL | IC50 [2]: 0.322 µM | inhibition in vivo at 7.5 mg/kg [15]: 11% | concentration at 144 h [16]: 360 ng/mL

CCNc1ncc(-c2ccc(Oc3ccnc(-c4cnn(C)c4)c3)cn2)c(=O)[nH]1
IC50 (NFS-60): 0.097 µM | IC50 [2]: 0.142 µM

CNC(=O)c1cc(Oc2ccc(-c3cnc(NC(C)C)[nH]c3=O)nc2)ccn1
IC50 (NFS-60): 0.127 µM | IC50 [2]: 7.4 µM

CCNc1ncc(-c2ccc(Oc3ccnc(-c4cnn(C)c4)c3)c(C)n2)c(=O)[nH]1
IC50 (NFS-60): 0.045 µM | IC50 (cells [1]): 0.018 µM | IC50 [2]: 2.1 µM

Cc1nc(-c2cnc(NC3CC3)[nH]c2=O)ccc1Oc1ccnc(-c2cnn(C)c2)c1
IC50 (NFS-60): 0.055 µM | IC50 (cells [1]): 0.016 µM | IC50 [2]: > 3.3 µM

CC(=O)Nc1cc(Oc2ccc(-c3cnc(NC(C)C)[nH]c3=O)nc2C)ccn1
IC50 (NFS-60): 0.193 µM | IC50 [2]: 0.277 µM

FC(F)(F)c1ccc(CNc2ccc(Cc3c[nH]c4ncc(Cl)cc34)cn2)cn1 [PEXIDARTINIB]
IC50 (NFS-60): 0.033 µM

Cc1nc(-c2cnc(NC(C)C)n(C)c2=O)ccc1Oc1ccnc(-c2cnn(C)c2)c1 [VIMSELTINIB]
AUC [17]: 38.009 µM·h | concentration at 144 h [3]: 1380 ng/mL | IC50 (NFS-60): 0.018 µM | inhibition in vivo at 7.5 mg/kg [4]: 88% | Papp A→B [18]: 16 ×10⁻⁶ cm/s | IC20 (hERG (KCNH2)): 20 µM | fraction unbound [19]: 0.026 | Tmax [20]: 1.67 h | concentration at 144 h [5]: 4260 ng/mL | inhibition in vivo at 7.5 mg/kg [6]: 92% | fraction unbound [21]: 0.006 | concentration at 144 h [7]: 1970 ng/mL | fraction unbound [22]: 0.033 | bioavailability [23]: 76% | Vd [24]: 1.33 L/kg | IC50 [25]: 1.6 µM | solubility [26]: 200 µM (≈ 86.3 µg/mL) | IC50 (cells [1]): 0.0093 µM | remaining at 1 h [27]: 94.8% | inhibition in vivo at 7.5 mg/kg [8]: 90% | inhibition in vivo at 7.5 mg/kg [9]: 93% | fraction unbound [28]: 0.033 | concentration at 144 h [10]: 4450 ng/mL | Tmax [29]: 2.67 h | remaining at 1 h [30]: 95.2% | remaining at 1 h [31]: 95.2% | Cmax [32]: 3740 nM | half-life [33]: 10.6 h | Cmax [34]: 1010 nM | Vd [35]: 0.69 L/kg | inhibition in vivo at 7.5 mg/kg [11]: 79% | inhibition in vivo at 7.5 mg/kg [12]: 84% | AUC [36]: 5.432 µM·h | concentration at 144 h [13]: 2360 ng/mL | CL [37]: 0.5 mL/min/kg | IC50 (cells [38]): 2.9 µM | remaining at 1 h [39]: 100% | concentration at 144 h [14]: 1310 ng/mL | IC50 [2]: 0.476 µM | inhibition in vivo at 7.5 mg/kg [15]: 89% | CL [40]: 2.5 mL/min/kg | bioavailability [41]: 33% | t1/2 [42]: 19.8 h | concentration at 144 h [16]: 3030 ng/mL
